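Here, GI50 denotes the concentration required for 50% inhibition of growth. TGI is the concentration that stops growth completely.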
Experiments:
Assay in all cases: NCI-60 cell line screen, 384-well format
COLO 205 colon = system: COLO 205 colon
UO-31 renal = system: UO-31 renal
OVCAR-5 ovarian = system: OVCAR-5 ovarian
NCI-H522 lung = system: NCI-H522 lung
HT29 colon = system: HT29 colon
SK-MEL-5 melanoma = system: SK-MEL-5 melanoma
HCC-2998 colon = system: HCC-2998 colon
UACC-62 melanoma = system: UACC-62 melanoma
SK-MEL-2 melanoma = system: SK-MEL-2 melanoma
K-562 leukemia = system: K-562 leukemia
IGROV1 ovarian = system: IGROV1 ovarian
MDA-MB-468 breast = system: MDA-MB-468 breast
NCI-H460 NSCLC = system: NCI-H460 NSCLC
KM12 colon = system: KM12 colon
SK-MEL-28 melanoma = system: SK-MEL-28 melanoma
HCT-116 colon = system: HCT-116 colon
RPMI-8226 leukemia = system: RPMI-8226 leukemia
NCI-H226 lung = system: NCI-H226 lung
MDA-MB-435 melanoma = system: MDA-MB-435 melanoma
HOP-62 NSCLC = system: HOP-62 NSCLC
RXF 393 renal = system: RXF 393 renal
NCI-H23 lung = system: NCI-H23 lung
SF-268 CNS = system: SF-268 CNS
MALME-3M melanoma = system: MALME-3M melanoma
HL-60(TB) leukemia = system: HL-60(TB) leukemia
A498 renal = system: A498 renal
SN12C renal = system: SN12C renal
CAKI-1 renal = system: CAKI-1 renal
UACC-257 melanoma = system: UACC-257 melanoma
HCT-15 colon = system: HCT-15 colon
MOLT-4 leukemia = system: MOLT-4 leukemia
OVCAR-4 ovarian = system: OVCAR-4 ovarian
CCRF-CEM leukemia = system: CCRF-CEM leukemia
TK-10 renal = system: TK-10 renal
A549 NSCLC = system: A549 NSCLC
OVCAR-3 ovarian = system: OVCAR-3 ovarian
LOX IMVI melanoma = system: LOX IMVI melanoma
SNB-19 CNS = system: SNB-19 CNS
NCI-H322M lung = system: NCI-H322M lung
U251 glioblastoma = system: U251 glioblastoma
SF-295 CNS = system: SF-295 CNS
SW-620 colon = system: SW-620 colon
SK-OV-3 ovarian = system: SK-OV-3 ovarian
OVCAR-8 ovarian = system: OVCAR-8 ovarian
HOP-92 NSCLC = system: HOP-92 NSCLC
MDA-MB-231 breast = system: MDA-MB-231 breast
BT-549 breast = system: BT-549 breast
SF-539 CNS = system: SF-539 CNS
786-0 renal = system: 786-0 renal
ACHN renal = system: ACHN renal
PC-3 prostate = system: PC-3 prostate
M14 melanoma = system: M14 melanoma
DU-145 prostate = system: DU-145 prostate
SR leukemia = system: SR leukemia
NCI/ADR-RES ovarian = system: NCI/ADR-RES ovarian
MCF7 breast = system: MCF7 breast

Cc1c(-c2c(F)cc(C(N)=O)c3[nH]c4c(c23)CC[C@H](C(C)(C)O)C4)cccc1-n1c(=O)c2cccc(F)c2n(C)c1=O was tested, and the GI50 (COLO 205 colon) was 1.61 µM, the TGI (COLO 205 colon) was 4.46 µM and the GI50 (UO-31 renal) was 2 µM. For the same compound, the TGI (UO-31 renal) was 5.39 µM, the GI50 (OVCAR-5 ovarian) was 2.56 µM and the TGI (OVCAR-5 ovarian) was 11.3 µM. The GI50 (NCI-H522 lung) was 1.89 µM, the TGI (NCI-H522 lung) was 6.56 µM and the GI50 (HT29 colon) was 1.47 µM. The TGI (HT29 colon) was 11.8 µM, the GI50 (SK-MEL-5 melanoma) was 4.31 µM and the TGI (SK-MEL-5 melanoma) was 14.1 µM. The GI50 (HCC-2998 colon) was 2.33 µM, the TGI (HCC-2998 colon) was 6.99 µM and the GI50 (UACC-62 melanoma) was 3.6 µM. The TGI (UACC-62 melanoma) was 15.7 µM, the GI50 (SK-MEL-2 melanoma) was 2.18 µM and the TGI (SK-MEL-2 melanoma) was 7.9 µM. It also gave a GI50 (K-562 leukemia) of 4.66 µM, a TGI (K-562 leukemia) greater than 100 µM and a GI50 (IGROV1 ovarian) of 3.17 µM. The TGI (IGROV1 ovarian) was 9.53 µM, the GI50 (MDA-MB-468 breast) was 2.86 µM and the TGI (MDA-MB-468 breast) was 5.86 µM. It also gave a GI50 (NCI-H460 NSCLC) of 2.9 µM, a TGI (NCI-H460 NSCLC) of 13.1 µM and a GI50 (KM12 colon) of 0.284 µM. The TGI (KM12 colon) was 1.54 µM, the GI50 (SK-MEL-28 melanoma) was 2.87 µM and the TGI (SK-MEL-28 melanoma) was 13.8 µM. The GI50 (HCT-116 colon) was 3.14 µM, the TGI (HCT-116 colon) was 12.1 µM and the GI50 (RPMI-8226 leukemia) was 1.32 µM. The TGI (RPMI-8226 leukemia) was 2.7 µM, the GI50 (NCI-H226 lung) was 2.56 µM and the TGI (NCI-H226 lung) was 10.4 µM. It also gave a GI50 (MDA-MB-435 melanoma) of 4.13 µM, a TGI (MDA-MB-435 melanoma) of 15.1 µM and a GI50 (HOP-62 NSCLC) of 8.36 µM. The TGI (HOP-62 NSCLC) was 26.5 µM, the GI50 (RXF 393 renal) was 1.96 µM and the TGI (RXF 393 renal) was 4.07 µM. It also gave a GI50 (NCI-H23 lung) of 2.67 µM, a TGI (NCI-H23 lung) of 10.9 µM and a GI50 (SF-268 CNS) of 5.58 µM. The TGI (SF-268 CNS) was 21.4 µM, the GI50 (MALME-3M melanoma) was 1.79 µM and the TGI (MALME-3M melanoma) was 6.95 µM. It also gave a GI50 (HL-60(TB) leukemia) of 1.12 µM, a TGI (HL-60(TB) leukemia) of 2.34 µM and a GI50 (A498 renal) of 3.25 µM. The TGI (A498 renal) was 9.41 µM, the GI50 (SN12C renal) was 3.26 µM and the TGI (SN12C renal) was 13.1 µM. It also gave a GI50 (CAKI-1 renal) of 2.21 µM, a TGI (CAKI-1 renal) of 5.72 µM and a GI50 (UACC-257 melanoma) of 2.29 µM. It also gave a TGI (UACC-257 melanoma) of 10.7 µM, a GI50 (HCT-15 colon) of 3.7 µM and a TGI (HCT-15 colon) of 13.6 µM. The GI50 (MOLT-4 leukemia) was 1.53 µM, the TGI (MOLT-4 leukemia) was 2.93 µM and the GI50 (OVCAR-4 ovarian) was 2.8 µM. The TGI (OVCAR-4 ovarian) was 7.38 µM, the GI50 (CCRF-CEM leukemia) was 3.33 µM and the TGI (CCRF-CEM leukemia) was 9.78 µM. The GI50 (TK-10 renal) was 2.16 µM, the TGI (TK-10 renal) was 4.76 µM and the GI50 (A549 NSCLC) was 2.43 µM. For the same compound, the TGI (A549 NSCLC) was 9.34 µM, the GI50 (OVCAR-3 ovarian) was 2.54 µM and the TGI (OVCAR-3 ovarian) was 6.39 µM. For the same compound, the GI50 (LOX IMVI melanoma) was 5.98 µM, the TGI (LOX IMVI melanoma) was 16.2 µM and the GI50 (SNB-19 CNS) was 9.94 µM. It also gave a TGI (SNB-19 CNS) of 24.5 µM, a GI50 (NCI-H322M lung) of 4.08 µM and a TGI (NCI-H322M lung) of 23.6 µM. It also gave a GI50 (U251 glioblastoma) of 5.78 µM, a TGI (U251 glioblastoma) of 19.8 µM and a GI50 (SF-295 CNS) of 3.42 µM. It also gave a TGI (SF-295 CNS) of 12 µM, a GI50 (SW-620 colon) of 2.94 µM and a TGI (SW-620 colon) of 13.5 µM. The GI50 (SK-OV-3 ovarian) was 2.26 µM, the TGI (SK-OV-3 ovarian) was 8.77 µM and the GI50 (OVCAR-8 ovarian) was 4.62 µM. The TGI (OVCAR-8 ovarian) was 22.9 µM, the GI50 (HOP-92 NSCLC) was 1.45 µM and the TGI (HOP-92 NSCLC) was 4.8 µM. It also gave a GI50 (MDA-MB-231 breast) of 3.59 µM, a TGI (MDA-MB-231 breast) of 14.5 µM and a GI50 (BT-549 breast) of 5.1 µM. For the same compound, the TGI (BT-549 breast) was 15.7 µM, the GI50 (SF-539 CNS) was 8 µM and the TGI (SF-539 CNS) was 20.9 µM. The GI50 ([…]-0 renal) was 3.27 µM, the TGI (786-0 renal) was 14.5 µM and the GI50 (ACHN renal) was 1.97 µM. For the same compound, the TGI (ACHN renal) was 5.73 µM, the GI50 (PC-3 prostate) was 3.85 µM and the TGI (PC-3 prostate) was 17 µM. For the same compound, the GI50 (M14 melanoma) was 2.2 µM, the TGI (M14 melanoma) was 10.1 µM and the GI50 (DU-145 prostate) was 4.85 µM. It also gave a TGI (DU-145 prostate) of 23 µM, a GI50 (SR leukemia) of 1.66 µM and a TGI (SR leukemia) of 3.04 µM. It also gave a GI50 (NCI/ADR-RES ovarian) of 3.55 µM, a TGI (NCI/ADR-RES ovarian) of 13 µM and a GI50 (MCF7 breast) of 1.29 µM. It also gave a TGI (MCF7 breast) of 3.56 µM.
